The values below come from publication PMC4860824, “Targeting the γ-/β-secretase interaction reduces β-amyloid generation and ameliorates Alzheimer’s disease-related pathogenesis” (Cell Discovery, 2015).

The target of the test is T1, presenilin-1 (PS1) (Homo sapiens, UniProt P49768).
T1 construct: gene PSEN1; PS1-NTF
Kind of test: dose-dependent competition with XYT1032 photo-affinity labelling in HEK293T cells ([…]). Format: cell-based.

As to `C=C1CCC2(C(=O)O)CC[C@]3(C)C(=CC[C@H]4C3(C)CC[C@H]3C(C)(C)[C@H](O)CC[C@@]34C)[C@@H]2C1` (stereo partly drawn) [3AA, 3-α-Akebonoic acid], the “dose-dependent competition with XYT1032 photo-affinity labelling in HEK293T cell” value is listed as “in the presence of XYT472B or 3AA, the labeling of PS1-NTF was decreased dose dependently”.
